In US8492540B2, “1,2,4,-triazin-3,5-dione compounds suitable for treating disorders that respond to modulation of the dopamine D3 receptor” (Abbott GmbH & Co. KG, priority 2007, dated 2013):

What was measured:
[1] = biological target: T1, human dopamine D3 receptors (Homo sapiens, UniProt P35462); assay: Dopamine D3 receptor binding, [125I]-iodosulpride displacement; details: membranes of HEK-293 cells, 0.1 nM [125I]-iodosulpride
T1 construct: expressed in transfected cells; membranes)
Description: (§1) Each as-say mixture was run in triplicate. • The incubation buffer contained 50 mM tris, 120 mM NaCl, 5 mM KCl, 2 mM CaCl2, 2 mM MgCl2 and 0.1% bovine serum albumin, 10 μM quinolone and 0.1% ascorbic acid (prepared fresh daily). […] Each assay mixture was run in triplicate. • The incubation buffer contained 50 mM tris, 120 mM NaCl, 5 mM KCl, 2 mM CaCl2, 2 mM MgCl2 and 0.1% bovine serum albumin. The buffer was adjusted to pH 7.4 with HCl. c) Measurement and Analysis: • After having been incubated at 25° C. for 60 minutes, the assay mixtures were filtered through a Whatman GF/B glass fiber filter under vacuum using a cell collecting device. The filters were transferred to scintillation viols using a filter transfer system. After 4 ml of Ultima Gold® (Packard) have been added, the samples were shaken for one hour and the radioactivity was then counted in a Beta-Counter (Packard, Tricarb 2000 or 2200CA).

[2] = biological target: T2, human dopamine D2L receptors (long isoform) (Homo sapiens, UniProt P14416); assay: Dopamine D2L receptor binding, [125I] iodospiperone displacement; details: ratio of Ki at human D2L to Ki at human D3, HEK-293 membranes
T2 construct: expressed in transfected cells; membranes)
T2 sequence (P14416 whole entry, canonical isoform): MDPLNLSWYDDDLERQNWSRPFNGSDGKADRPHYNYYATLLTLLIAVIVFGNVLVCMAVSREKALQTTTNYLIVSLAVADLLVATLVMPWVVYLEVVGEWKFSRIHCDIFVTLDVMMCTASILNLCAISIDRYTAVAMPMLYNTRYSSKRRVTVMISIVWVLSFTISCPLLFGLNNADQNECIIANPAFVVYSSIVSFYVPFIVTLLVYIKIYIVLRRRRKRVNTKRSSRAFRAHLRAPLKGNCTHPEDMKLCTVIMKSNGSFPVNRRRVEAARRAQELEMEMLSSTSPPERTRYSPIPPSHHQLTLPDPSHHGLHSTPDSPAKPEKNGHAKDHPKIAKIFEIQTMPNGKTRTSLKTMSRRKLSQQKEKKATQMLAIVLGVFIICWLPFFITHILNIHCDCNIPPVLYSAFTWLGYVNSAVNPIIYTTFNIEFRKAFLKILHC
Description: as §1

T1 sequence (P35462 whole entry): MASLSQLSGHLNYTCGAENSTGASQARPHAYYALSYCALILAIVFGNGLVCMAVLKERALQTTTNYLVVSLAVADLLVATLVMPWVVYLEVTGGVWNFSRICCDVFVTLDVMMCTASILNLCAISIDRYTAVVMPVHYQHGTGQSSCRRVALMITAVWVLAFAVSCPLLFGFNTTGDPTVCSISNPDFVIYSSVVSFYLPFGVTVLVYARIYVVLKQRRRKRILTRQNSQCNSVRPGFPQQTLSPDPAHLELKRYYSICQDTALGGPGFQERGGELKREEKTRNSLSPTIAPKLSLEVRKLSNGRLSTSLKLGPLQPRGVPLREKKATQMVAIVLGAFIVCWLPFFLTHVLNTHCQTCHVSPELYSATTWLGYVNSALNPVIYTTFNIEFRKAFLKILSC

| SMILES | Ki [1] [nM] | Selectivity vs. D2L, Ki(D2L)/Ki(D3) [2] |
| --- | --- | --- |
| CCCc1cc(N2CCN(CCCCn3ncc(=O)[nH]c3=O)CC2)nc(C(C)(C)C)n1 [Example 3, 2-{4-[4-(2-tert-Butyl-6-propyl-pyrimidin-4-yl)-piperazin-1-yl]butyl}-2H-[1,2,4]triazine-3,5-dione] | < 10 | +++ (+++>50) |
| CC(C)(C)c1cc(N2CCN(CCCCn3ncc(=O)[nH]c3=O)CC2)nc(C(C)(C)C)n1.O=C(O)C(F)(F)F [Example 4, 2-{4-[4-(2,6-Di-tert-butyl-pyrimidin-4-yl)-piperazin-1-yl]butyl}-2H-[1,2,4]triazine-3,5-dione trifluoroacetate] | < 10 | ++ (++>20) |
| CC(C)(C)c1nc(N2CCN(CCCCn3ncc(=O)[nH]c3=O)CC2)cc(C(F)(F)F)n1.Cl [Example 1, 2-{4-[4-(2-tert-Butyl-6-trifluoromethyl-pyrimidin-4-yl)-piperazin-1-yl]butyl}-2H-[1,2,4]triazine-3,5-dione hydrochloride] | < 10 | ++ (++>20) |
| CC(C)(C)c1nc(C(F)F)cc(N2CCN(CCCCn3ncc(=O)[nH]c3=O)CC2)n1.Cl [Example 2, 2-{4-[4-(2-tert-Butyl-6-difluoromethyl-pyrimidin-4-yl)-piperazin-1-yl]butyl}-2H-[1,2,4]triazine-3,5-dione hydrochloride] | < 10 | ++ (++>20) |

Second part, the compound after the results:

| Ki [1] [nM] | Selectivity vs. D2L, Ki(D2L)/Ki(D3) [2] | SMILES |
| --- | --- | --- |
| < 10 | ++ (++>20) | CCCc1cc(N2CCN(CCCCn3nc(C)c(=O)[nH]c3=O)CC2)nc(C(C)(C)C)n1.Cl [Example 7, 2-{4-[4-(2-tert-Butyl-6-propyl-pyrimidin-4-yl)-piperazin-1-yl]butyl}-6-methyl-2H-[1,2,4]triazine-3,5-dione hydrochloride] |
| < 10 | ++ (++>20) | CC(C)(C)c1nc(C2CCC2)cc(N2CCN(CCCCn3ncc(=O)[nH]c3=O)CC2)n1 [Example 5, 2-{4-[4-(2-tert-Butyl-6-cyclobutyl-pyrimidin-4-yl)-piperazin-1-yl]butyl}-2H-[1,2,4]triazine-3,5-dione] |
| < 10 | ++ (++>20) | Cc1nn(CCCCN2CCN(c3cc(C(F)(F)F)nc(C(C)(C)C)n3)CC2)c(=O)[nH]c1=O.Cl [Example 6, 2-{4-[4-(2-tert-Butyl-6-trifluoromethyl-pyrimidin-4-yl)-piperazin-1-yl]butyl}-6-methyl-2H-[1,2,4]triazine-3,5-dione hydrochloride] |
